Experimental data: the supplement of paper PMC10307832

Tests used:
Experiment in all cases: relative viability (nuclei count vs DMSO), 5 days (fraction); higher = more cells survive
XMD13-2 + Lapatinib = compound: C1CC1C(=O)NC2=NNC3=C2C=CC(=C3)C4=CC(=CC=C4)C(=O)NC5CC5 [XMD13-2] + CS(=O)(=O)CCNCc1ccc(-c2ccc3ncnc(Nc4ccc(OCc5cccc(F)c5)c(Cl)c4)c3c2)o1 [Lapatinib] (partner 2 µM)
Procedure, shortened: (§1)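 Medians of duplicate plates are given as relative viability. That measure is the nuclei count in treated wells divided by the count in vehicle wells. Counts were taken on 4× images of lung cancer cell lines in 1536-well plates, 5 days after pin-tool dosing the day after seeding with one drug alone or a fixed anchor-drug dose plus five library-drug doses (not always all listed) in √10 steps.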

XMD13-2 + AZD7762 = compound: C1CC1C(=O)NC2=NNC3=C2C=CC(=C3)C4=CC(=CC=C4)C(=O)NC5CC5 [XMD13-2] + NC(=O)Nc1cc(-c2cccc(F)c2)sc1C(=O)N[C@H]1CCCNC1 [AZD7762] (partner 0.2 µM)
Procedure, shortened: as §1

ALW-II-49-7 + Navitoclax = compound: Cc1ccc(C(=O)Nc2cccc(C(F)(F)F)c2)cc1Nc1cncc(C(N)=O)c1 [ALW-II-49-7] + CC1(C)CCC(c2ccc(Cl)cc2)=C(CN2CCN(c3ccc(C(=O)NS(=O)(=O)c4ccc(N[C@H](CCN5CCOCC5)CSc5ccccc5)c(S(=O)(=O)C(F)(F)F)c4)cc3)CC2)C1 [Navitoclax] (partner 0.5 µM)
Procedure, shortened: as §1

Dasatinib + Navitoclax = compound: Cc1nc(Nc2ncc(C(=O)Nc3c(C)cccc3Cl)s2)cc(N2CCN(CCO)CC2)n1 [Dasatinib] + CC1(C)CCC(c2ccc(Cl)cc2)=C(CN2CCN(c3ccc(C(=O)NS(=O)(=O)c4ccc(N[C@H](CCN5CCOCC5)CSc5ccccc5)c(S(=O)(=O)C(F)(F)F)c4)cc3)CC2)C1 [Navitoclax] (partner 0.5 µM)
Procedure, shortened: as §1

Cell Line | relative viability (XMD13-2 + Lapatinib; first compound 0.05 µM) | relative viability (XMD13-2 + Lapatinib; first compound 0.1581 µM) | relative viability (XMD13-2 + Lapatinib; first compound 0.5 µM) | relative viability (XMD13-2 + Lapatinib; first compound 1.581 µM) | relative viability (XMD13-2 + Lapatinib; first compound 5 µM) | relative viability (XMD13-2 + AZD7762; first compound 0.05 µM) | relative viability (XMD13-2 + AZD7762; first compound 0.1581 µM) | relative viability (XMD13-2 + AZD7762; first compound 0.5 µM) | relative viability (XMD13-2 + AZD7762; first compound 1.581 µM) | relative viability (XMD13-2 + AZD7762; first compound 5 µM) | relative viability (ALW-II-49-7 + Navitoclax; first compound 0.08 µM) | relative viability (ALW-II-49-7 + Navitoclax; first compound 0.253 µM) | relative viability (ALW-II-49-7 + Navitoclax; first compound 0.8 µM) | relative viability (ALW-II-49-7 + Navitoclax; first compound 2.53 µM) | relative viability (ALW-II-49-7 + Navitoclax; first compound 8 µM) | relative viability (Dasatinib + Navitoclax; first compound 0.005 µM) | relative viability (Dasatinib + Navitoclax; first compound 0.01581 µM) | relative viability (Dasatinib + Navitoclax; first compound 0.05 µM) | relative viability (Dasatinib + Navitoclax; first compound 0.1581 µM) | relative viability (Dasatinib + Navitoclax; first compound 0.5 µM)
LC-2-ad | 1.01 | 1.06 | 0.971 | 0.885 | 0.855 | 0.996 | 0.94 | 0.896 | 0.928 | 0.826 | 0.445 | 0.463 | 0.37 | 0.341 | 0.42 | 0.553 | 0.418 | 0.341 | 0.13 | 0.1
LCLC-97TM1 | 1.19 | 0.693 | 1.23 | 0.75 | 0.825 | 0.249 | 0.26 | 0.231 |  | 0.254 | 0.628 | 0.334 | 0.57 | 0.131 | 0.431 | 0.448 | 0.488 | 0.579 | 0.413 | 0.282
LK-2 | 0.977 | 0.912 | 1.12 | 1.03 | 0.743 | 0.626 | 0.499 | 0.476 | 0.431 | 0.689 | 0.887 | 0.802 | 0.945 |  | 0.745 | 0.782 | 0.594 | 0.373 | 0.292 | 0.245
LOU-NH91 | 0.809 | 0.758 | 0.725 | 0.713 | 0.746 | 0.938 | 0.767 | 0.78 | 0.725 | 0.793 | 0.642 | 0.733 | 0.623 | 0.345 | 0.604 | 0.758 | 0.595 | 0.531 | 0.506 | 0.317
LU99A | 1.21 | 0.975 | 1.02 | 0.858 | 0.42 | 0.378 | 0.501 | 0.442 | 0.327 | 0.312 | 0.899 | 0.838 | 0.926 | 0.895 | 0.779 | 0.748 | 0.924 | 0.88 | 0.828 | 0.385
LXF-289 | 0.923 | 0.901 | 0.905 | 0.897 | 0.834 | 1.14 | 1.25 | 1.2 | 1.29 | 1.17 | 0.945 | 0.932 | 0.99 | 1.05 | 0.99 | 1.01 | 0.969 | 0.923 | 0.408 | 0.171
NCI-H23 | 1.33 | 0.964 | 0.996 | 1.09 | 1.27 | 0.199 | 0.256 | 0.231 | 0.209 | 0.296 | 0.968 | 0.92 | 0.848 | 0.766 | 0.787 | 0.828 | 0.716 | 0.896 | 0.496 | 0.315
NCI-H322M | 0.641 | 0.528 | 0.593 | 0.605 | 0.724 | 0.461 | 0.602 | 0.543 |  | 0.653 | 1.22 | 1.31 | 1.24 | 1.26 | 1.09 | 1.28 | 1.27 | 1.31 | 0.524 | 0.237
NCI-H460 | 1.23 | 0.925 | 1.27 | 0.908 | 0.0203 | 0.708 | 0.751 | 0.633 | 0.66 | 0.683 | 1.17 | 1.08 | 1.11 | 1.25 | 1.09 | 0.828 | 0.912 | 0.815 | 0.563 | 0.217
NCI-H596 | 1.1 | 0.942 | 1.22 | 0.989 | 1.17 | 1.14 | 0.945 | 1.09 | 1.18 | 1.2 | 0.98 | 0.784 | 0.85 | 0.972 | 0.927 | 0.818 | 0.707 | 0.726 | 0.253 | 0.187
NCI-H647 | 1.14 | 1.31 | 1.22 | 1.02 | 0.369 | 0.558 | 0.521 | 0.532 | 0.406 | 0.248 | 1.03 | 1.3 |  | 0.479 | 0.716 | 0.983 | 0.731 | 0.392 | 0.307 | 0.152
NCI-H727 | 0.836 | 0.844 | 1.06 | 1.01 | 0.949 | 0.807 | 0.665 | 0.583 | 0.505 | 0.776 | 0.611 | 0.447 | 0.482 | 0.53 | 0.552 | 0.404 | 0.266 | 0.186 | 0.139 | 0.143
NCI-H838 | 1.17 | 1.14 | 1.13 | 1.03 | 0.959 | 0.986 | 1.04 | 1.06 | 0.967 | 0.954 | 1.12 | 1.42 | 1.17 | 1.14 | 1.17 | 1.03 | 0.791 | 0.709 | 0.389 | 0.21
NCI-H1355 | 1.13 | 0.942 | 1.05 | 0.997 | 1.06 | 0.854 | 0.881 | 0.787 | 0.636 | 0.793 | 0.93 | 0.988 | 0.981 | 0.715 | 0.802 | 0.858 | 0.653 | 0.92 | 0.534 | 0.376
NCI-H1395 | 1.56 | 0.997 | 1.08 | 0.908 | 0.945 | 0.408 | 0.404 | 0.423 | 0.38 | 0.419 | 1.28 | 1.16 | 1.01 | 0.307 | 1.22 | 1.01 | 0.971 | 0.91 | 0.609 | 0.476
NCI-H1437 | 0.911 | 0.849 | 0.858 | 0.793 | 0.683 | 1.24 | 1.14 | 1.18 | 1.09 | 1.17 | 1.11 | 1.17 |  | 1.07 | 1.06 | 1.09 | 1.05 | 1.09 | 0.999 | 0.432
NCI-H1651 | 1.09 | 0.78 | 0.906 | 1.09 | 0.751 | 0.515 | 0.577 | 0.486 | 0.462 | 0.511 | 1.09 | 0.969 | 1.13 | 0.921 | 1.06 | 0.962 | 0.806 | 0.759 | 0.76 | 0.611
NCI-H1666 | 0.63 | 0.666 | 0.979 | 0.719 | 0.441 | 0.849 | 0.89 | 0.927 | 0.81 | 0.807 | 0.879 | 1.03 | 1.03 | 0.978 | 1 | 0.948 | 0.895 | 0.917 | 0.617 | 0.324
NCI-H1703 | 1.38 | 1.4 | 1.17 | 0.842 | 0.72 | 0.124 | 0.131 | 0.125 |  | 0.116 | 1.02 | 1.08 | 0.964 | 0.406 | 0.291 | 0.567 | 0.38 | 0.238 | 0.17 | 0.146
NCI-H1734 | 1.28 | 0.995 | 0.735 | 0.935 | 0.85 | 0.66 | 0.673 | 0.548 | 0.501 | 0.493 | 0.778 | 0.954 | 0.822 | 0.634 | 0.665 | 0.729 | 0.695 | 0.629 | 0.404 | 0.374
NCI-H1755 | 1.08 | 1.09 | 1.07 | 1 | 1.09 | 0.419 | 0.431 | 0.46 | 0.449 | 0.413 | 0.976 | 1.03 | 0.976 | 0.884 | 0.759 | 0.697 | 0.591 | 0.501 | 0.273 | 0.142
NCI-H1792 | 1.1 | 0.873 | 0.951 | 0.777 | 1.06 | 0.854 | 0.78 | 0.762 | 0.634 | 0.846 | 0.351 | 0.438 | 0.725 | 0.654 | 0.327 | 0.627 | 0.606 | 0.541 | 0.402 | 0.296
NCI-H1793 | 0.885 | 0.609 | 1.03 | 0.601 | 0.826 | 0.707 | 0.662 | 0.468 | 0.524 | 0.72 | 0.268 | 0.505 | 0.463 | 0.363 | 0.463 | 0.323 | 0.182 | 0.238 | 0.166 | 0.152
NCI-H1915 | 1.07 | 1.01 | 1 | 1 | 0.94 | 0.675 | 0.774 | 0.708 | 0.696 | 0.646 | 0.771 | 0.823 | 0.733 | 0.764 | 0.705 | 0.803 | 0.728 | 0.75 | 0.44 | 0.261
NCI-H1944 | 1.01 | 0.726 | 0.95 | 1.06 | 0.746 | 0.555 | 0.473 | 0.488 | 0.75 | 0.551 | 1.06 | 1.14 | 0.991 | 1.11 | 1.07 | 1.03 | 1.07 | 0.976 | 0.695 | 0.504
NCI-H1975 | 0.968 | 0.922 | 0.991 | 1.01 | 1.01 | 0.857 | 0.869 | 0.735 | 0.664 | 0.799 | 1.06 | 1.05 | 0.993 | 0.919 | 0.998 | 0.895 | 1.02 | 1.03 | 0.412 | 0.308
NCI-H1993 | 0.904 | 0.87 | 0.931 | 0.765 | 0.706 | 0.926 | 0.595 | 0.387 | 0.63 | 0.791 | 0.85 | 0.927 | 0.904 | 0.785 | 1.08 | 0.872 | 0.7 | 0.724 | 0.581 | 0.736
